Source: PubChem BioAssay (NCI)
Several values for one entry are separate records, joined by “and”; a condition that tells them apart may be missing. Equal entries are not always repeated.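 Cultured in 96-well plates, cells were exposed to test compound for 48 hours across five concentrations. Here, GI50 denotes the concentration required for 50% inhibition of growth. Definition used: TGI = concentration required for complete inhibition of growth.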

Tests used:
Experiment in all cases: NCI tumour cell line growth inhibition, 48 h
[1] = test system: MOLT-4 leukemia
[2] = test system: CAKI-1 renal
[3] = test system: COLO 205 colon
[4] = test system: MCF7 breast
[5] = test system: BT-549 breast
[6] = test system: NCI-H522 lung
[7] = test system: SF-268 CNS
[8] = test system: HCT-116 colon
[9] = test system: A549 NSCLC
[10] = test system: CCRF-CEM leukemia

SMILES | GI50 [1] | TGI [1] | GI50 [2] | TGI [2] | GI50 [3] | TGI [3] | GI50 [4] | TGI [4] | GI50 [5] | TGI [5] | GI50 [6] | TGI [6] | GI50 [7] | TGI [7] | GI50 [8] | TGI [8] | GI50 [9] | TGI [9] | GI50 [10] | TGI [10]
CN1CCN(Cc2ccc(NC(=O)c3cncc(C#Cc4cnc5cccnn45)c3)cc2C(F)(F)F)CC1 | 1.42 µM | 5.34 µM | 1.44 µM | 5.22 µM | 1.02 µM | 2.91 µM | 0.707 µM | 4.77 µM | 1.74 µM | 5.65 µM | 0.99 µM | 2.72 µM | 1.19 µM | 2.81 µM | 0.711 µM | 6.04 µM | 1.57 µM | 5.05 µM | 1.52 µM | 15.2 µM
N#Cc1c(N/N=C/c2c(Cl)cccc2Cl)nc(N)nc1N1CCCC1 | 2.88 µM | 18.3 µM | 1.29 µM | > 100 µM | 5.29 µM | > 100 µM | 5.8 µM | > 100 µM | 11.3 µM | > 100 µM | 2.63 µM | 13.3 µM | > 100 µM | > 100 µM | 1.01 µM | 16.8 µM | 3.65 µM | > 100 µM | 3.52 µM | 16.1 µM
Nc1ccc(N)c2c1C(=O)c1cccc([N+](=O)[O-])c1C2=O | 8.33 µM | > 91.4 µM | 0.549 µM | 4.07 µM | 4.17 µM | > 55.4 µM | 0.32 µM | 18 µM | 2.54 µM | > 31.2 µM | 1.46 µM | 17.9 µM | 5.07 µM | > 89.4 µM | 2.73 µM | > 48.2 µM | 1.47 µM |  | 7.95 µM | > 100 µM
O=C(c1ccccc1)c1ccc(N2C(=O)C3C4c5ccccc5C(/C=C/C(=O)c5ccccn5)(c5ccccc54)C3C2=O)cc1 (centres undefined) | 2.29 µM | > 100 µM | 8.82 µM | > 100 µM | 3.72 µM | 20.8 µM | 1.77 µM | > 100 µM | 2.62 µM | 9.88 µM | 2.28 µM | 6.82 µM | > 23.1 µM | > 100 µM | 1.66 µM | 4.02 µM | 2.87 µM | > 100 µM | 0.976 µM | > 100 µM
C/C(=N\NC(=O)c1ccncc1)c1ccccc1O | 2.35 µM | > 100 µM | 0.805 µM | 21.4 µM | 2.62 µM | > 100 µM | 3.72 µM | > 100 µM | 3.79 µM | 84.7 µM | 2.82 µM | > 100 µM | 3.77 µM | > 100 µM | 2.32 µM | > 100 µM | 3.86 µM | > 100 µM | 0.742 µM | > 100 µM
Cc1ccc(S(=O)(=O)NCc2cccc([N+](=O)[O-])c2)cc1 |  | > 100 µM |  | > 100 µM |  | > 100 µM |  | > 100 µM |  | > 100 µM |  | > 100 µM |  | > 100 µM |  | > 100 µM |  | > 100 µM |  | > 100 µM
O=C(/C=C/N1CCN(c2cccc(Cl)c2)CC1)c1ccc(Cl)cc1 | 33.5 µM | > 100 µM | 28.8 µM | 71.1 µM | 36.2 µM | > 100 µM | 29.7 µM | > 100 µM | 19.3 µM | 50.2 µM | 18.9 µM | 54.6 µM | 19.8 µM | 53.2 µM | 27.1 µM | 70.4 µM | 31.9 µM | > 100 µM | 22.6 µM | 66.7 µM
COc1cc(/C=C/C(=O)c2c(-c3ccc(Cl)cc3)nc3sc(C)nn23)cc(OC)c1OC | 7.59 µM | > 100 µM | 54 µM | > 100 µM | 60.8 µM | > 100 µM | 8.81 µM | > 100 µM | 7.77 µM | 77.7 µM | 2.94 µM | 8.8 µM | 24.6 µM | > 100 µM | 15.7 µM | > 100 µM | 49.5 µM | > 100 µM | 3.92 µM | 87.7 µM
COc1ccc(S(=O)(=O)NCCCNc2nccc(-c3c(-c4ccc(F)cc4)nc4sccn34)n2)cc1 | 5.7 µM | > 100 µM | 6.72 µM | > 100 µM | 5.58 µM | 73.9 µM | 2.74 µM | > 100 µM | 5.42 µM | 59.4 µM | 5.02 µM | > 100 µM | 7.85 µM | > 100 µM | 4.85 µM | > 100 µM | 4.33 µM | > 100 µM | 4.42 µM | > 100 µM
O=NNc1nc(-c2ccccn2)nc2ccccc12 |  | > 100 µM |  | > 100 µM |  | > 100 µM |  | > 100 µM |  | > 100 µM |  | 9.21 µM |  | > 100 µM |  | 16.5 µM |  | > 100 µM |  | 15.4 µM
Cc1c(N)nc(C2CC(=O)N2CC(N)C(N)=O)nc1C(=O)NC(C(=O)NC(C)C(O)C(C)C(=O)NC(C(=O)NCCc1nc(-c2nc(C(=O)NCCNCC(C)O)cs2)cs1)C(C)O)C(OC1OC(CO)C(O)C(O)C1OC1OC(CO)C(O)C(OC(N)=O)C1O)c1cnc[nH]1 (centres undefined) | 4.23 µM | 50 µM and 6.66 µM | 0.0234 µM |  | 33.6 µM | 50 µM and 36.6 µM |  | 50 µM |  | > 50 µM | 0.972 µM | 10.8 µM and 7.89 µM | 1.69 µM | 32.6 µM and > 23.2 µM | 6.97 µM | 50 µM and 24.3 µM | 4.68 µM | 50 µM and > 100 µM | 12.6 µM | 50 µM and > 33 µM
Oc1ccc(/C=N/Nc2nnc(N/N=C/c3ccc(O)cc3O)c3ccccc23)c(O)c1 | 0.432 µM |  | 0.334 µM | 0.671 µM | 0.897 µM | 2.96 µM | 0.576 µM | 0.848 µM and 2.29 µM | 0.399 µM | 0.581 µM and 1.94 µM | 0.253 µM | 0.799 µM | 0.353 µM |  | 0.348 µM | 2.16 µM | 0.67 µM | > 28.7 µM | 0.28 µM | 0.783 µM and 5.49 µM
COc1cccc2c(Nc3ccc(C(=O)NCCN4CCNCC4)cc3)cc(-c3ccccc3)nc12 | 30.6 µM | > 100 µM | > 100 µM | > 100 µM | 19.7 µM | 56.1 µM | 23.7 µM | > 100 µM | 35.1 µM | > 100 µM | 15.8 µM | 30.5 µM | 50.1 µM | > 100 µM | 30.9 µM | > 100 µM | > 100 µM | > 100 µM | 30.1 µM | 91.7 µM
CC(=O)Nc1ccc(C(=O)COc2cccc(/C=C3\CCc4ccccc4C3=O)c2)cc1 | 4.3 µM | 20.9 µM | 21 µM | 77.1 µM | 17.2 µM | 34.5 µM | 2.9 µM | 19 µM | 17.6 µM | 54.2 µM | 6.55 µM | 32.8 µM | 19 µM | 52.4 µM | 4.09 µM | 17.1 µM | 38.1 µM | > 100 µM | 2.31 µM | 6.09 µM
Cn1c(=O)c(Oc2ccc(F)cc2F)cc2cnc(NC3CCC(O)CC3)nc21 (centres undefined) | > 25 µM | > 25 µM | > 25 µM | > 25 µM | > 25 µM | > 25 µM | > 25 µM | > 25 µM | > 25 µM | > 25 µM | > 25 µM | > 25 µM | > 25 µM | > 25 µM | > 25 µM | > 25 µM | > 25 µM | > 25 µM | > 25 µM | > 25 µM
CCC(=C(c1ccc(OCCN(CC)CC)cc1)c1ccc(OCCN(CC)CC)cc1)c1ccc(Cl)cc1 | 0.583 µM | 1.3 µM | 0.515 µM | 0.984 µM | 0.631 µM | 1.32 µM | 0.347 µM | 0.861 µM | 0.647 µM | 1.45 µM | 0.564 µM | 1.21 µM | 0.604 µM | 1.23 µM | 0.508 µM | 0.995 µM | 0.638 µM | 1.31 µM | 0.641 µM | 1.74 µM
OCCn1c(-c2ccncc2)c(-c2ccc(F)cc2)c2ncccc21 | > 25 µM | > 25 µM | > 25 µM | > 25 µM | > 25 µM | > 25 µM | > 25 µM | > 25 µM | > 25 µM | > 25 µM | > 25 µM | > 25 µM | > 25 µM | > 25 µM | > 25 µM | > 25 µM | > 25 µM | > 25 µM | > 25 µM | > 25 µM
